From US20240366612A1, “COMPOUNDS AND METHODS FOR MODULATING NUCLEIC ACID SPLICING” (REMIX THERAPEUTICS INC., priority 2021, published 2024)
Structures can show the parent of a compound that is named as a salt.

Experiments:
[1] = system: HiBiT-tagged HTT protein in K562 cells; assay: HiBiT protein abundance assay, HTT; assay type: cell-based, human; conditions: HiBiT-modified K562 cells, 24 hours, luminescence
In short: (§1)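 K562 lines with the endogenous target HiBiT-tagged, seeded in IMDM+1% FBS, got a 10-point 3-fold dilution series (top final 10 μM, DMSO ≤0.25%) for 24 hours at 37° C. Lytic LgBiT luminescence was normalized against unmodified-K562 and DMSO-only controls, and IC50 was interpolated at 50% from a four-parameter logistic fit.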

in vitro = conditions: human
Description: (§2) Compounds described herein were screened for toxicity in K562 (human chronic myelogenous leukemia) cells using a Cell Titer Glo 2.0 assay.
(§3) • Promega CellTiter-Gbo® 2.0 Cell Viability Assay (cat #G9241) • Corning 384-well TC-treated microplates (cat #3570)
(§4) Cells were plated at 500 cells/well (K562 cells) in 45 μL of IMDM supplemented with 10% FBS in a 384-well opaque plate. Wells containing only medium were used as a blank control. Test compounds (e.g., compounds of Formula (I), (II), and (III)) were first serially diluted in DMSO then diluted 1:100 with IMDM+10% FBS. The final concentration of DMSO was 0.1% in each well. The cells were incubated for 72 hours at 37° C. and 5% CO2 before assaying with Cell Titer Glo 2.0 reagent.

[2] = system: HiBiT-tagged Target C protein in K562 cells; assay: HiBiT protein abundance assay, Target C; assay type: cell-based, human; conditions: HiBiT-modified K562 cells, 24 hours, luminescence
In short: as §1

[3] = Cell Titer Glo 2.0 cell viability assay; conditions: human, K562 cells
Description: as §2, §3, §4

IC50 [1] | IC50 [2] | SMILES | GI50 at 72 h (in vitro) | GI50 at 72 h [3]
> 10000 nM | > 10000 nM | Cc1cn2cc(N3CCc4cc(C5CCNCC5)sc4C3=O)cc(F)c2n1 [Compound 800, 6-[8-fluoro-2-methylimidazo[1,2-a]pyridin-6-yl]-2-(piperidin-4-yl)-4H,5H-thieno[2,3-c]pyridin-7-one] |  | > 10000 nM
> 10000 nM | > 10000 nM | Cc1cn2cc(-n3ccc4cc(C5CCNCC5)sc4c3=O)cc(F)c2n1 [Compound 801, 6-[8-fluoro-2-methylimidazo[1,2-a]pyridin-6-yl]-2-(piperidin-4-yl)thieno[2,3-c]pyridin-7-one] |  | > 10000 nM
< 100 nM | 100 to 1000 nM | Cc1cc(-c2cc3cnn(C4CCNCC4)c(=O)c3s2)cc2cn(C)nc12 [Compound 802, 2-(2,7-dimethyl-2H-indazol-5-yl)-6-(piperidin-4-yl)thieno[2,3-d]pyridazin-7(6H)-one] |  | 100 to 1000 nM
100 to 1000 nM | 100 to 1000 nM | Cc1cn2cc(-c3cc4ccn(C5CCNCC5)c(=O)c4s3)cc(F)c2n1 [Compound 804, 2-(8-fluoro-2-methylimidazo[1,2-a]pyridin-6-yl)-6-(piperidin-4-yl)thieno[2,3-c]pyridin-7(6H)-one] |  | 100 to 1000 nM
100 to 1000 nM | 100 to 1000 nM | Cc1cc(-c2cc3ccn(C4CCNCC4)c(=O)c3s2)cc2cn(C)nc12 [Compound 805, 2-(2,7-dimethyl-2H-indazol-5-yl)-6-(piperidin-4-yl)thieno[2,3-c]pyridin-7(6H)-one] |  | 1000 to 10000 nM
100 to 1000 nM | 100 to 1000 nM | Cc1cn2nc(-c3cc4ccn(C5CCNCC5)c(=O)c4s3)cc(C)c2n1 [Compound 806, 2-(2,8-dimethylimidazo[1,2-b]pyridazin-6-yl)-6-(piperidin-4-yl)thieno[2,3-c]pyridin-7(6H)-one] |  | 100 to 1000 nM
100 to 1000 nM | 1000 to 10000 nM | Cc1cn2cc(-c3cc4ccn(C5CCN(C)CC5)c(=O)c4s3)cc(F)c2n1 [Compound 808, 2-(8-fluoro-2-methylimidazo[1,2-a]pyridin-6-yl)-6-(1-methylpiperidin-4-yl)thieno[2,3-c]pyridin-7(6H)-one] |  | 100 to 1000 nM
1000 to 10000 nM | 1000 to 10000 nM | Cc1cn2nc(-c3cc4ccn(C5CCN(C)CC5)c(=O)c4s3)cc(C)c2n1 [Compound 809] |  | 1000 to 10000 nM
100 to 1000 nM | 100 to 1000 nM | Cc1cn2nc(-c3nc4cnn(C5CCNCC5)c(=O)c4s3)cc(C)c2n1 [Compound 810] |  | 100 to 1000 nM
1000 to 10000 nM | > 10000 nM | Cc1nc(-c2nc3cnn(C4CCNCC4)c(=O)c3s2)cc2cn(C)nc12 [Compound 811] |  | 1000 to 10000 nM
100 to 1000 nM | 100 to 1000 nM | Cc1cn2cc(-c3nc4cnn(C5CCNCC5)c(=O)c4s3)nc(C)c2n1 [Compound 812, 2-(2,8-dimethylimidazo[1,2-a]pyrazin-6-yl)-6-(piperidin-4-yl)thiazolo[4,5-d]pyridazin-7(6H)-one] |  | 100 to 1000 nM

SMILES | IC50 [1] | IC50 [2] | GI50 at 72 h (in vitro) | GI50 at 72 h [3]
Cc1cn2nc(-c3cc(=O)n4cc(N(C)C5CC(C)(C)NC(C)(C)C5)sc4n3)cc(C)c2n1 [Compound 205, 7-(2,8-dimethylimidazo[1,2-b]pyridazin-6-yl)-2-(methyl(2,2,6,6-tetramethylpiperidin-4-yl)amino)-5H-thiazolo[3,2-a]pyrimidin-5-one] | 1000 to 10000 nM | 1000 to 10000 nM | 1000 to 10000 nM | 
Cc1cn2cc(-c3nn4c(=O)cc(N(C)C5CC(C)(C)NC(C)(C)C5)nc4s3)cc(F)c2n1 [Compound 215, 2-(8-fluoro-2-methylimidazo[1,2-a]pyridin-6-yl)-7-(methyl(2,2,6,6-tetramethylpiperidin-4-yl)amino)-5H-[1,3,4]thiadiazolo[3,2-a]pyrimidin-5-one] | > 10000 nM | > 10000 nM | 1000 to 10000 nM | 
Cc1cn2cc(-n3cnc4nc(N(C)C5CC(C)(C)NC(C)(C)C5)sc4c3=O)cc(F)c2n1 [Compound 227, 6-(8-fluoro-2-methylimidazo[1,2-a]pyridin-6-yl)-2-(methyl(2,2,6,6-tetramethylpiperidin-4-yl)amino)thiazolo[4,5-d]pyrimidin-7(6H)-one, formate] | > 10000 nM | > 10000 nM | > 10000 nM | 
